pIC50: −log10 of the molar value. Converted amounts (≈) assume the structure as drawn.
Columns and labels:
Cytochrome P450 1A2 = target: T1, Cytochrome P450 1A2 (Homo sapiens, UniProt P05177); experiment: Inhibition of CYP1A2 in human liver microsomes using phenacetin as substrate preincubated for 10 mins followed by substrate addition measured for 30 mins by LC-MS analysis; assay type: ADME, Microsome
T1 sequence (P05177 whole entry): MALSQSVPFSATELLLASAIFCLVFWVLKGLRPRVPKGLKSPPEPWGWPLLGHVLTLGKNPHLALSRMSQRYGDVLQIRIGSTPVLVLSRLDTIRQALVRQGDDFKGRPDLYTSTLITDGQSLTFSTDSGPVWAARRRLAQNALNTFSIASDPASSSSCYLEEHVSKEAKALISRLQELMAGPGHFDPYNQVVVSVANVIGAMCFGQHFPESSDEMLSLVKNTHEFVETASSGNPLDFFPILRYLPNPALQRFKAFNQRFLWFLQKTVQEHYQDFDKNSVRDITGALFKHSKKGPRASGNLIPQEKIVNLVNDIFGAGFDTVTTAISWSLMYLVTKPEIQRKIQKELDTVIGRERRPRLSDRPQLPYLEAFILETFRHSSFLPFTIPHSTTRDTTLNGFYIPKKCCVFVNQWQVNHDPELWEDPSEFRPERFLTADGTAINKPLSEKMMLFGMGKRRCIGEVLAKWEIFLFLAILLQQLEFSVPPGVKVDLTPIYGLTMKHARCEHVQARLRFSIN

[1] = Passive permeability in MDCKII-MDR1 cells incubated for 2 hrs by LC-MS analysis; assay type: ADME, cell-based, Canis lupus familiaris; details: dog, MDCK-MDR1, read-out: permeability
[2] = Thermodynamic solubility of compound at pH 2; assay type: physicochemical; details: buffer, read-out: Therm_solubility
[3] = Kinetic solubility of compound at pH 6.5; assay type: physicochemical; details: buffer, read-out: Kinetic_solubility
[4] = Tmax in fasted ICR mouse at 10 mg/kg, po measured for 24 hrs by LC-MS analysis; assay type: ADME, organism-based; details: in vivo
[5] = Plasma protein binding in mouse at 2 uM incubated for 1 hr by LC/MS analysis; assay type: ADME, cell-free; details: read-out: PPB (converted)
NCI-H1373 = experiment: Antitumor activity against human NCI-H1373 cells xenografted in […] SCID mouse model assessed as tumor growth inhibition at 30 mg/kg, po administered everyday measured after 21 days relative to control; assay type: functional; details: NCI-H1373, 504 h, time 21 day, read-out: TGI
[6] = Metabolic stability in monkey liver microsomes assessed as intrinsic clearance preincubated for 5 mins followed by NADPH addition measured for 1 hr by LC-MS analysis; assay type: ADME, Macaca mulatta, Microsome; details: rhesus monkey, time 65 min, read-out: CLH
[7] = Kinetic solubility of compound at pH 2; assay type: physicochemical; details: buffer, read-out: Kinetic_solubility
[8] = Plasma protein binding in monkey at 2 uM incubated for 1 hr by LC/MS analysis; assay type: ADME, cell-free, Macaca mulatta; details: rhesus monkey, read-out: PPB (converted)
Cytochrome P450 3A4 = Cytochrome P450 3A4 (Homo sapiens, UniProt P08684); experiment: Inhibition of CYP3A4 in human liver microsomes using midazolam as substrate preincubated for 10 mins followed by substrate addition measured for 30 mins by LC-MS analysis; assay type: ADME, Microsome
[9] = AUC in fasted ICR mouse at 2 mg/kg, iv measured for 24 hrs by LC-MS analysis; assay type: ADME, organism-based; details: in vivo
[10] = Metabolic stability in rat liver microsomes assessed as intrinsic clearance preincubated for 5 mins followed by NADPH addition measured for 1 hr by LC-MS analysis; assay type: ADME, Microsome; details: time 65 min, read-out: CLH
[11] = Volume of distribution at steady state in fasted Beagle dog at 2 mg/kg, iv measured for 24 hrs by LC-MS analysis; assay type: ADME, organism-based, Canis lupus familiaris; details: in vivo, read-out: Vdss
Cytochrome P450 2D6 = Cytochrome P450 2D6 (Homo sapiens, UniProt P10635); experiment: Inhibition of CYP2D6 in human liver microsomes using dextromethorphan as substrate preincubated for 10 mins followed by substrate addition measured for 30 mins by LC-MS analysis; assay type: ADME, Microsome
[12] = Plasma protein binding in rat at 2 uM incubated for 1 hr by LC/MS analysis; assay type: ADME, cell-free; details: read-out: PPB (converted)
Cytochrome P450 2C9 = Cytochrome P450 2C9 (Homo sapiens, UniProt P11712); experiment: Inhibition of CYP2C9 in human liver microsomes using diclofenac as substrate preincubated for 10 mins followed by substrate addition measured for 30 mins by LC-MS analysis; assay type: ADME, Microsome
[13] = Cmax in fasted ICR mouse at 10 mg/kg, po measured for 24 hrs by LC-MS analysis; assay type: ADME, organism-based; details: in vivo
[14] = Half life in fasted ICR mouse at 10 mg/kg, po measured for 24 hrs by LC-MS analysis; assay type: ADME, organism-based; details: in vivo
[15] = Metabolic stability in mouse liver microsomes assessed as intrinsic clearance preincubated for 5 mins followed by NADPH addition measured for 1 hr by LC-MS analysis; assay type: ADME, Microsome; details: time 65 min, read-out: CLH
[16] = Metabolic stability in human liver microsomes assessed as intrinsic clearance preincubated for 5 mins followed by NADPH addition measured for 1 hr by LC-MS analysis; assay type: ADME, Microsome; details: time 65 min, read-out: CLH
[17] = Volume of distribution at steady state in fasted ICR mouse at 2 mg/kg, iv measured for 24 hrs by LC-MS analysis; assay type: ADME, organism-based; details: in vivo, read-out: Vdss
[18] = Toxicity in […] SCID mouse model xenografted with human NCI-H1373 cells assessed as body weight loss at 30 mg/kg, po measured for 21 days; assay type: organism-based; details: in vivo, 504 h, time 21 day
[19] = Kinetic solubility of compound at pH 7.4; assay type: physicochemical; details: buffer, read-out: Kinetic_solubility
[20] = Cmax in fasted Beagle dog at 10 mg/kg, po measured for 24 hrs by LC-MS analysis; assay type: ADME, organism-based, Canis lupus familiaris; details: in vivo
[21] = Thermodynamic solubility of compound at pH 6.5; assay type: physicochemical; details: buffer, read-out: Therm_solubility
[22] = Metabolic stability in dog liver microsomes assessed as intrinsic clearance preincubated for 5 mins followed by NADPH addition measured for 1 hr by LC-MS analysis; assay type: ADME, Canis lupus familiaris, Microsome; details: time 65 min, read-out: CLH
[23] = Toxicity in […] SCID mouse model xenografted with human NCI-H1373 cells assessed as animal death at 30 mg/kg, po measured for 21 days; assay type: organism-based; details: in vivo, 504 h, time 21 day
[24] = AUC in fasted Beagle dog at 2 mg/kg, iv measured for 24 hrs by LC-MS analysis; assay type: ADME, organism-based, Canis lupus familiaris; details: in vivo, iv, 2 mg/kg, 24 h
[25] = AUC in fasted Beagle dog at 10 mg/kg, po measured for 24 hrs by LC-MS analysis; assay type: ADME, organism-based, Canis lupus familiaris; details: in vivo
[26] = Plasma protein binding in human at 2 uM incubated for 1 hr by LC/MS analysis; assay type: ADME, cell-free; details: read-out: PPB (converted)
[27] = Half life in fasted Beagle dog at 10 mg/kg, po measured for 24 hrs by LC-MS analysis; assay type: ADME, organism-based, Canis lupus familiaris; details: in vivo
[28] = Half life in fasted Beagle dog at 2 mg/kg, iv measured for 24 hrs by LC-MS analysis; assay type: ADME, organism-based, Canis lupus familiaris; details: in vivo
[29] = Apparent permeability across basolateral to apical side in MDCKII-MDR1 cells incubated for 2 hrs by LC-MS analysis; assay type: ADME, cell-based, Canis lupus familiaris; details: dog, MDCK-MDR1
[30] = Plasma protein binding in dog at 2 uM incubated for 1 hr by LC/MS analysis; assay type: ADME, cell-free, Canis lupus familiaris; details: read-out: PPB (converted)
[31] = Tmax in fasted Beagle dog at 10 mg/kg, po measured for 24 hrs by LC-MS analysis; assay type: ADME, organism-based, Canis lupus familiaris; details: in vivo
[32] = Apparent permeability across apical to basolateral side in MDCKII-MDR1 cells incubated for 2 hrs by LC-MS analysis; assay type: ADME, cell-based, Canis lupus familiaris; details: dog, MDCK-MDR1
[33] = Oral bioavailability in fasted Beagle dog at 10 mg/kg measured for 24 hrs by LC-MS analysis; assay type: ADME, organism-based, Canis lupus familiaris; details: in vivo
[34] = Oral bioavailability in fasted ICR mouse at 10 mg/kg measured for 24 hrs by LC-MS analysis; assay type: ADME, organism-based; details: in vivo
Cytochrome P450 2C19 = Cytochrome P450 2C19 (Homo sapiens, UniProt P33261); experiment: Inhibition of CYP2C19 in human liver microsomes using mephenytoin as substrate preincubated for 10 mins followed by substrate addition measured for 30 mins by LC-MS analysis; assay type: ADME, Microsome
[35] = Clearance in fasted ICR mouse at 2 mg/kg, iv measured for 24 hrs by LC-MS analysis; assay type: ADME, organism-based; details: in vivo
[36] = AUC in fasted ICR mouse at 10 mg/kg, po measured for 24 hrs by LC-MS analysis; assay type: ADME, organism-based; details: in vivo
[37] = Half life in fasted ICR mouse at 2 mg/kg, iv measured for 24 hrs by LC-MS analysis; assay type: ADME, organism-based; details: in vivo
[38] = Thermodynamic solubility of compound at pH 7.4; assay type: physicochemical; details: buffer, read-out: Therm_solubility

Cytochrome P450 2C19, sequence (P33261 whole entry): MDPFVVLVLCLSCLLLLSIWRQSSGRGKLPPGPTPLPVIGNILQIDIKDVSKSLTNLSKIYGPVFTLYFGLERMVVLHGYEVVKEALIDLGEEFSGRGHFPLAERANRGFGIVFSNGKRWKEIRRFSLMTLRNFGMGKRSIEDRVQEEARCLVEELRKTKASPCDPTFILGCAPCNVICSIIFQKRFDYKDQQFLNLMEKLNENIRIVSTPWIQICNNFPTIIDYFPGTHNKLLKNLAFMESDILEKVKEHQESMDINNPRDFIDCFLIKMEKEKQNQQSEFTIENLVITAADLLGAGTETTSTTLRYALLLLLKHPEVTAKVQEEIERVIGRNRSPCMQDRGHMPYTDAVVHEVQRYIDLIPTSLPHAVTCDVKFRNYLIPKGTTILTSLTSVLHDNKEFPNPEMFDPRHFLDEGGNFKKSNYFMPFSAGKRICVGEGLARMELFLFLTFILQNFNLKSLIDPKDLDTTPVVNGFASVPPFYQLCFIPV
Cytochrome P450 3A4, sequence (P08684 whole entry): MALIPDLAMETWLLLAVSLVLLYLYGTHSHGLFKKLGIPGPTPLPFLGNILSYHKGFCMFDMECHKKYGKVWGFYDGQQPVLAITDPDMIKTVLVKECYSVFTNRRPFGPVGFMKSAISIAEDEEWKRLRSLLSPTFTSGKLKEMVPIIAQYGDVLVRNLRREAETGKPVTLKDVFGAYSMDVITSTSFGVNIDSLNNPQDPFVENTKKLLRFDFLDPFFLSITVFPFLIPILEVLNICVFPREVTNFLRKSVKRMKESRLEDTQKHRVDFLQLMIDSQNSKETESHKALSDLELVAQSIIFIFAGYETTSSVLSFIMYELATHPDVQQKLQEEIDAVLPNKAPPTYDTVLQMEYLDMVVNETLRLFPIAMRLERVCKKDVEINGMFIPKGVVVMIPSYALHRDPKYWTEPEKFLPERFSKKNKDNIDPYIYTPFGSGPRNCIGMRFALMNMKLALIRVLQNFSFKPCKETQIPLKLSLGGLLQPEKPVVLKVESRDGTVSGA
Cytochrome P450 2D6, sequence (P10635 whole entry): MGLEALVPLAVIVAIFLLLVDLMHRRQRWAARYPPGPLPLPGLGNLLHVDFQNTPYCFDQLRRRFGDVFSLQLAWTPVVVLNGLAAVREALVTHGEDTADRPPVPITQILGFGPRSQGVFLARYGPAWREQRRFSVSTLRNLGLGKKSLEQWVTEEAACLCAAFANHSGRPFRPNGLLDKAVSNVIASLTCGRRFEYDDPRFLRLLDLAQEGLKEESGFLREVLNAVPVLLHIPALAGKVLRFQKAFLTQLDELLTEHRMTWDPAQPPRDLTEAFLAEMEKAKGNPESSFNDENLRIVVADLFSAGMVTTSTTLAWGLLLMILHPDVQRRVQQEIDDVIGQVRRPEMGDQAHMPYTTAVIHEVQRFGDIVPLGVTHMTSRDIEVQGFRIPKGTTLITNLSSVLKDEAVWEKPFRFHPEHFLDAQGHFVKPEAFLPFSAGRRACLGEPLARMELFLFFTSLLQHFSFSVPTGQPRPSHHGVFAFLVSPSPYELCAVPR
Cytochrome P450 2C9, sequence (P11712 whole entry): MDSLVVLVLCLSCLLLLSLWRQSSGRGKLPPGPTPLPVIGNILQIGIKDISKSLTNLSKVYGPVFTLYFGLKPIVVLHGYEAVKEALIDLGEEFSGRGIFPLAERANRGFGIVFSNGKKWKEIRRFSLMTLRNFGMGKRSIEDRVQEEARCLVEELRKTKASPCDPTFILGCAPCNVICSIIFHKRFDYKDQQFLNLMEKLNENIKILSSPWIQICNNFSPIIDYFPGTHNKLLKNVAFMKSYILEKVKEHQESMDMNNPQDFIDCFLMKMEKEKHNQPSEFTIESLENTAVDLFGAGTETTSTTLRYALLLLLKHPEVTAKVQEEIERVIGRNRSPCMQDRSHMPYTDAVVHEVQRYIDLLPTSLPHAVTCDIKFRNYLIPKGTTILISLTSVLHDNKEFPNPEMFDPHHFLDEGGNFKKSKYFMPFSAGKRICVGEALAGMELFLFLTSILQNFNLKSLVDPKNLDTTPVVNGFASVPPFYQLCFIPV

C[C@@H](COCCC(=O)N1CCN(c2ncc(C(F)(F)F)cn2)CC1)Nc1cn[nH]c(=O)c1C(F)(F)F [ATAMPARIB]
pIC50 (Cytochrome P450 1A2): < 4.52
Papp at 2 h [1]: 1.03 ×10⁻⁶ cm/s
solubility thermodynamic [2]: 68.9 µg/mL (≈ 132 µM)
solubility kinetic [3]: 151 µM (≈ 79 µg/mL)
Tmax [4]: 0.25 h
fraction unbound at 1 h, 2 µM [5]: 0.123
inhibition in vivo at 30 mg/kg (NCI-H1373): 62.7%
CLint scaled [6]: 94.8 mL/min/kg
solubility kinetic [7]: 158 µM (≈ 82.7 µg/mL)
fraction unbound at 1 h, 2 µM [8]: 0.347
pIC50 (Cytochrome P450 3A4): < 4.52
AUC at 24 h [9]: 470 ng·h/mL
CLint scaled [10]: 110 mL/min/kg
Vd [11]: 1.7 L/kg
pIC50 (Cytochrome P450 2D6): < 4.52
fraction unbound at 1 h, 2 µM [12]: 0.233
pIC50 (Cytochrome P450 2C9): 5.50
Cmax [13]: 995 ng/mL
t1/2 [14]: 2.7 h
CLint scaled [15]: 345 mL/min/kg
CLint scaled [16]: 23.2 mL/min/kg
Vd [17]: 0.714 L/kg
Activity [18]: Non-Toxic
solubility kinetic [19]: 158 µM (≈ 82.7 µg/mL)
Cmax [20]: 1800 ng/mL
solubility thermodynamic [21]: 54.6 µg/mL (≈ 104 µM)
CLint scaled [22]: 17.1 mL/min/kg
Activity [23]: Non-Toxic
AUC [24]: 4694 ng·h/mL
AUC [25]: 5508 ng·h/mL
fraction unbound at 1 h, 2 µM [26]: 0.194
t1/2 [27]: 2.5 h
half-life [28]: 1 h
Papp B→A at 2 h [29]: 3.78 ×10⁻⁶ cm/s
fraction unbound at 1 h, 2 µM [30]: 0.131
Tmax [31]: 1.33 h
Papp A→B at 2 h [32]: 0.28 ×10⁻⁶ cm/s
bioavailability [33]: 23.4%
bioavailability [34]: 26.2%
pIC50 (Cytochrome P450 2C19): < 4.52
clearance [35]: 72.6 mL/min/kg
AUC [36]: 617 ng·h/mL
half-life [37]: 0.2 h
solubility thermodynamic [38]: 52.8 µg/mL (≈ 101 µM)

Source: ChEMBL document CHEMBL5634130, “Exploring the structural-activity relationship of hexahydropyrazino[1,2-d]pyrido[3,2-b][1,4]oxazine derivatives as potent and orally-bioavailable PARP7 inhibitors” (Eur J Med Chem, 2023)
